Assay results reported in patent US6353017B1, “Dipeptide nitriles” (Novartis AG, priority 1997, dated 2002).

COC(=O)c1cccc(OCCC(C#N)NC(=O)[C@H](Cc2cccc(C)c2)NC(=O)C(c2ccccc2)c2ccccc2)c1 (stereo partly drawn) [Example 305, N-[3-(3-(methoxycarbonyl)-phenoxy)-1-cyanopropyl]-3-methyl-Nα-(2,2-diphenylacetyl)-L-phenylalaninamide]
melting point: 152 to 153 °C
